This passage reports IC50 results from US11072611B2, “Compounds and pharmaceutical compositions thereof for the treatment of inflammatory disorders” (Galapagos NV, priority 2013, dated 2021).

In the assay the test system is LPA 18:2. The experiment in a line: Rat whole blood (plasma) LPA assay. The assay is classed as biochemical. Particulars: 2 h at 37° C., LPA 18:2 by LC-MS/MS. How it is done: Whole blood is collected from rats or mouse by exsanguinations on sodium heparin tube, then after centrifugation at 3000 rpm for 15 min at 4° C., plasma is stored at −80° C. Compounds are diluted in DMSO in concentration dependent manner then 0.5 μL are dispensed into 96-well plate placed in ice. Plasma is defrosted on ice then 49.5 μL of plasma are added into the well containing 0.5 μL of compound (1% DMSO final). Plates are covered with a lid in polypropylene and incubated at +37° C., 5% CO2, for 2 h under gentle shaking (except controls which are stored at −20° C.).
At the end of the incubation, controls are defrosted in ice and transferred in the incubated plates for LC-MS/MS analysis with a non GLP-validated method. For the analysis, plasma proteins from a 10 μL incubated plates are precipitated with an excess of methanol containing the internal standard, LPA 17:0. After centrifugation, the corresponding supernatant is injected on a C18 column. Analytes are eluted out of the column under isocratic conditions. An API5500 QTRAP mass spectrometer (ABSciex™) is used for the detection of LPA 18:2. No calibration curve is prepared for LPA 18:2, however relative quantities are evaluated based on the peak area.
Regarding `CCc1nc2c(F)cc(N3CCN(CC(=O)NC)CC3)cn2c1N(C)c1nc(-c2ccc(F)cc2)c(C#N)s1` [Compound 13, 2-(4-(3-((5-cyano-4-(4-fluorophenyl)thiazol-2-yl)(methyl)amino)-2-ethyl-8-fluoroimidazo[1,2-a]pyridin-6-yl)piperazin-1-yl)-N-methylacetamide], the 50% inhibitory concentration (IC50) was in the range of 0.01 to 100 nM.

In turn, `CCc1nc2c(F)cc(N3CCN(CC(=O)N4CC(O)C4)CC3)cn2c1N(C)c1nc(-c2ccc(F)cc2)cs1` [Compound 14, 2-(4-(2-ethyl-8-fluoro-3-((4-(4-fluorophenyl)thiazol-2-yl)(methyl)amino)imidazo[1,2-a]pyridin-6-yl)piperazin-1-yl)-1-(3-hydroxyazetidin-1-yl)ethanone] displayed an IC50 of 0.01 to 100 nM.

On to `CCc1nc2cc(F)c(N3CCN(CC(=O)N4CC(O)C4)CC3)cn2c1N(C)c1nc(-c2ccc(F)cc2)c(C#N)s1` [Compound 18, 2-[(2-Ethyl-7-fluoro-6-{4-[2-(3-hydroxy-azetidin-1-yl)-2-oxo-ethyl]-piperazin-1-yl}-imidazo[1,2-a]pyridin-3-yl)-methyl-amino]-4-(4-fluoro-phenyl)-thiazole-5-carbonitrile], for which the 50% inhibitory concentration (IC50) is 0.01 to 100 nM.

`CCc1nc2cc(F)c(N3CCN(CC(=O)N4CC(O)C4)CC3)cn2c1N(C)c1nc(-c2ccc(F)cc2)cs1` [Compound 19, 2-[4-(2-Ethyl-7-fluoro-3-{[4-(4-fluoro-phenyl)-thiazol-2-yl]-methyl-amino}-imidazo[1,2-a]pyridin-6-yl)-piperazin-1-yl]-1-(3-hydroxy-azetidin-1-yl)-ethanone] registered an IC50 of over 1000 nM.

Regarding `CCc1nc2ccc(N3CCN(CC(=O)N4CC[C@@H](O)C4)CC3)cn2c1N(C)c1nc(-c2ccc(F)cc2)cs1` [Compound 26, (R)-2-(4-(2-ethyl-3-((4-(4-fluorophenyl)thiazol-2-yl)(methyl)amino)imidazo[1,2-a]pyridin-6-yl)piperazin-1-yl)-1-(3-hydroxypyrrolidin-1-yl)ethanone], the IC50 was over 1000 nM.

The compound `CCc1nc2ccc(N3CCN(C(=O)C4CCCN4)CC3)cn2c1N(C)c1nc(-c2ccc(F)cc2)cs1` (stereo not shown) [Compound 46, (4-(2-ethyl-3-((4-(4-fluorophenyl)thiazol-2-yl)(methyl)amino)imidazo[1,2-a]pyridin-6-yl)piperazin-1-yl)(pyrrolidin-2-yl)methanone] showed an IC50 of over 1000 nM.

In turn, `CCc1nc2ccc(N3CCN(C(=O)C4CCN(C(C)=O)C4)CC3)cn2c1N(C)c1nc(-c2ccc(F)cc2)cs1` (stereo not shown) [Compound 48, 1-{3-[4-(2-Ethyl-3-{[4-(4-fluoro-phenyl)-thiazol-2-yl]-methyl-amino}-imidazo[1,2-a]pyridin-6-yl)-piperazine-1-carbonyl]-pyrrolidin-1-yl}-ethanone] had a half-maximal inhibitory concentration (IC50) of over 1000 nM.

As for `CCc1nc2ccc(N3CCN(C(=O)CCCN(C)C)CC3)cn2c1N(C)c1nc(-c2ccc(F)cc2)cs1` [Compound 53, 4-(dimethylamino)-1-(4-(2-ethyl-3-((4-(4-fluorophenyl)thiazol-2-yl)(methyl)amino)imidazo[1,2-a]pyridin-6-yl)piperazin-1-yl)butan-1-one], the IC50 is over 1000 nM.

For the compound `CCc1nc2ccc(N3CCN(S(C)(=O)=O)CC3)cn2c1N(C)c1nc(-c2ccc(F)cc2)cs1` [Compound 54, N-(2-ethyl-6-(4-(methylsulfonyl)piperazin-1-yl)imidazo[1,2-a]pyridin-3-yl)-4-(4-fluorophenyl)-N-methylthiazol-2-amine], the IC50 was over 1000 nM.

In the case of `CCc1nc2ccc(N3CCN(S(=O)(=O)CCCN(C)C)CC3)cn2c1N(C)c1nc(-c2ccc(F)cc2)cs1` [Compound 56, N-(6-(4-(3-(dimethylamino)propylsulfonyl)piperazin-1-yl)-2-ethylimidazo[1,2-a]pyridin-3-yl)-4-(4-fluorophenyl)-N-methylthiazol-2-amine], the half-inhibitory concentration (IC50) is over 1000 nM.

Compound `CCc1nc2ccc(N3CCN(S(=O)(=O)CCCO)CC3)cn2c1N(C)c1nc(-c2ccc(F)cc2)cs1` [Compound 58, 3-(4-(2-ethyl-3-((4-(4-fluorophenyl)thiazol-2-yl)(methyl)amino)imidazo[1,2-a]pyridin-6-yl)piperazin-1-ylsulfonyl)propan-1-ol] yielded an IC50 of over 1000 nM.

In turn, `CCc1nc2ccc(C3=CCN(S(C)(=O)=O)CC3)cn2c1N(C)c1nc(-c2ccc(F)cc2)cs1` [Compound 66, N-(2-ethyl-6-(1-(methylsulfonyl)-1,2,3,6-tetrahydropyridin-4-yl)imidazo[1,2-a]pyridin-3-yl)-4-(4-fluorophenyl)-N-methylthiazol-2-amine] registered a half-inhibitory concentration (IC50) of over 1000 nM.

`CCc1nc2ccc(C3=CCN(S(C)(=O)=O)CC3)cn2c1N(C)c1nc(-c2ccc(OC(F)(F)F)cc2)cs1` [Compound 72, N-(2-ethyl-6-(1-(methylsulfonyl)-1,2,3,6-tetrahydropyridin-4-yl)imidazo[1,2-a]pyridin-3-yl)-N-methyl-4-(4-(trifluoromethoxy)phenyl)thiazol-2-amine] gave an IC50 of over 1000 nM.

Compound `CCc1nc2ccc(C3=CCN(S(=O)(=O)CCCO)CC3)cn2c1N(C)c1nc(-c2ccc(F)cc2)cs1` [Compound 75, 3-(4-(2-ethyl-3-((4-(4-fluorophenyl)thiazol-2-yl)(methyl)amino)imidazo[1,2-a]pyridin-6-yl)-5,6-dihydropyridin-1(2H)-ylsulfonyl)propan-1-ol] gave an IC50 of over 1000 nM.

As to `CCc1nc2ccc(C3CCN(S(=O)(=O)CCN4CCOCC4)CC3)cn2c1N(C)c1nc(-c2ccc(F)cc2)cs1` [Compound 91], the IC50 was over 1000 nM.

On to `CCc1nc2ccc(C3CCN(S(C)(=O)=O)CC3)cn2c1N(C)c1nc(-c2ccc(F)cc2C#N)cs1` [Compound 96, 2-(2-((2-ethyl-6-(1-(methylsulfonyl)piperidin-4-yl)imidazo[1,2-a]pyridin-3-yl)(methyl)amino)thiazol-4-yl)-5-fluorobenzonitrile], for which the IC50 is 0.01 to 100 nM.

On to `CCc1nc2ccc(C3CCN(CC(=O)N4CCCC4)CC3)cn2c1N(C)c1nc(-c2ccc(F)cc2)cs1` [Compound 115, 2-(4-(2-ethyl-3-((4-(4-fluorophenyl)thiazol-2-yl)(methyl)amino)imidazo[1,2-a]pyridin-6-yl)piperidin-1-yl)-1-(pyrrolidin-1-yl)ethanone], for which the IC50 lay within 0.01 to 100 nM.

`CCc1nc2ccc(C3CCN(S(C)(=O)=O)CC3)cn2c1N(C)c1nc(-c2ccc(F)cc2)c(C#N)s1` [Compound 136, 2-((2-ethyl-6-(1-(methylsulfonyl)piperidin-4-yl)imidazo[1,2-a]pyridin-3-yl)(methyl)amino)-4-(4-fluorophenyl)thiazole-5-carbonitrile] yielded a half-maximal inhibitory concentration (IC50) of 0.01 to 100 nM.

The compound `CCc1nc2ccc(N3CCN(CC(=O)N4CC(O)C4)CC3)cn2c1N(C)c1nc(-c2ccc(F)cc2)c(C#N)s1` [Compound 138, 2-((2-ethyl-6-(4-(2-(3-hydroxyazetidin-1-yl)-2-oxoethyl)piperazin-1-yl)imidazo[1,2-a]pyridin-3-yl)(methyl)amino)-4-(4-fluorophenyl)thiazole-5-carbonitrile] showed a 50% inhibitory concentration (IC50) of 0.01 to 100 nM.

On to `CCc1nc2ccc(N3CCN(CC(=O)N(C)C)CC3)cn2c1N(C)c1nc(-c2ccc(F)cc2)c(C#N)s1` [Compound 140, 2-(4-(3-((5-cyano-4-(4-fluorophenyl)thiazol-2-yl)(methyl)amino)-2-ethylimidazo[1,2-a]pyridin-6-yl)piperazin-1-yl)-N,N-dimethylacetamide], for which the concentration for half-maximal inhibition (IC50) lay within 0.01 to 100 nM.

On to `CCc1nc2ccc(C3CCN(CC(=O)N4CC(O)C4)CC3)cn2c1N(C)c1nc(-c2ccc(F)cc2)c(C#N)s1` [Compound 141, 2-((2-ethyl-6-(1-(2-(3-hydroxyazetidin-1-yl)-2-oxoethyl)piperidin-4-yl)imidazo[1,2-a]pyridin-3-yl)(methyl)amino)-4-(4-fluorophenyl)thiazole-5-carbonitrile], for which the IC50 lay within 0.01 to 100 nM.

In the case of `CCc1nc2ccc(C3CCN(CC(=O)N4CC[C@@H](O)C4)CC3)cn2c1N(C)c1nc(-c2ccc(F)cc2)c(C#N)s1` [Compound 142, (R)-2-((2-ethyl-6-(1-(2-(3-hydroxypyrrolidin-1-yl)-2-oxoethyl)piperidin-4-yl)imidazo[1,2-a]pyridin-3-yl)(methyl)amino)-4-(4-fluorophenyl)thiazole-5-carbonitrile], the IC50 lay in the range of 0.01 to 100 nM.

For `CCc1nc2ccc(C3CCN(CC(=O)N4CC[C@H](O)C4)CC3)cn2c1N(C)c1nc(-c2ccc(F)cc2)c(C#N)s1` [Compound 143, (S)-2-((2-ethyl-6-(1-(2-(3-hydroxypyrrolidin-1-yl)-2-oxoethyl)piperidin-4-yl)imidazo[1,2-a]pyridin-3-yl)(methyl)amino)-4-(4-fluorophenyl)thiazole-5-carbonitrile], the IC50 lay within 0.01 to 100 nM.

The compound `CCc1nc2ccc(C3CCN(CC(=O)N4CC(CO)C4)CC3)cn2c1N(C)c1nc(-c2ccc(F)cc2)c(C#N)s1` [Compound 144, 2-((2-ethyl-6-(1-(2-(3-(hydroxymethyl)azetidin-1-yl)-2-oxoethyl)piperidin-4-yl)imidazo[1,2-a]pyridin-3-yl)(methyl)amino)-4-(4-fluorophenyl)thiazole-5-carbonitrile] had an IC50 of 0.01 to 100 nM.

The compound `CCc1nc2ccc(C3CCN(CC(=O)N(C)C)CC3)cn2c1N(C)c1nc(-c2ccc(F)cc2)c(C#N)s1` [Compound 145, 2-(4-(3-((5-cyano-4-(4-fluorophenyl)thiazol-2-yl)(methyl)amino)-2-ethylimidazo[1,2-a]pyridin-6-yl)piperidin-1-yl)-N,N-dimethylacetamide] displayed an IC50 of 0.01 to 100 nM.

As a reminder, the IC50 is the midpoint of a concentration-inhibition curve.
